Measured values: patent publication US20250129103A1, “METHODS FOR TREATMENT OF CANCER” (Frontier Medicines Corporation, priority 2022, published 2025)
Converted amounts (≈) assume the structure as drawn.

How the values were obtained:
[1] = Determination of logD (1-octanol / phosphate buffer pH 7.4); format: physicochemical; conditions: for logD: 1-octanol/phosphate buffer, pH 7.4, pH 7.4, 1-octanol/phosphate buffer, read-out: Log D, pH 7.4
Outline: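 Each phase analysed by LCMS after 1 h shaking at 800 rpm and centrifugation, room temperature. Phases were mutually saturated 1-octanol and 100 mM phosphate buffer at pH 7.4. LogD derived from the phase concentrations.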

[2] = target: KRAS G12C (GMPPNP-loaded) and cRAF (Ras-binding domain) interaction (Homo sapiens (Human), UniProt P01116, C118S/C51S/C80L/G12C); experiment: Inhibition of KRAS G12C and cRAF binding (AlphaScreen); conditions: KRAS G12C loaded with GMPPNP, cRaf RBD, 2 hours preincubation; read-out: Raf-1 RBD K-Ras IC50
Outline: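 AlphaScreen readout (680 nm excitation, 570 nm emission) of RBD binding after a 60-90 min bead step at room temperature. This step follows 2 h compound exposure of GMPPNP-preloaded KRAS G12C in Hepes pH 7.4 buffer with MgCl2 and 10 μM GMPPNP.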

[3] = Determination of kinetic solubility (pH 7.4); format: physicochemical; conditions: phosphate buffer, pH 7.4, aqueous buffer, kinetic from dmso stock, 50 mM phosphate buffer pH 7.4, read-out: Ksol, pH 7.4
Outline: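 Solubility taken from filtrate peak areas on a calibration curve (HPLC-UV, LC-MS/MS). Before filtration and centrifugation, compound was shaken for 2 h at room temperature in pH 7.4 50 mM phosphate buffer.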

[4] = target: KRAS G12C (GMPPNP-loaded) and PI3Ka (Ras-binding domain) interaction (Homo sapiens (Human), UniProt P01116, C118S/C51S/C80L/G12C); experiment: Inhibition of KRAS G12C and PI3Ka binding (AlphaScreen); conditions: KRAS G12C loaded with GMPPNP, PI3Ka RBD, 2 hours preincubation; read-out: PI3K RBD K-Ras IC50
Experimental: The AlphaScreen technology was used to determine IC50S for compound inhibition of KRAS G12C (present as the Cys-light (C51S, C80L and C118S), truncated version comprising amino acids 1-169) and PI3Ka interaction. Compounds were diluted in 100% DMSO and each compound concentration was spotted at 200 nl/well onto low volume, white 384 well plates. The KRAS G12C contained a biotin-AviTag and the PI3Ka, as Ras-binding domain (amino acids 157-300, RBD), was His-tagged. KRAS G12C was preloaded with the GTP analogue Guanosine 5′-[β,γ-imido]triphosphate (GMPPNP). The KRAS G12C was diluted in 25 mM Hepes, pH 7.4, 150 mM NaCl, 5 mM MgCl2, 0.01% TritonX-100 and 10 μM GMPPNP and added at 10 ul/well to compound-spotted plates resulting in a DMSO concentration of 2%. Plates were incubated for 2 hours. A mixture of RBD and the AlphaScreen streptavidin donor and nickel chelate acceptor beads diluted in 25 mM Hepes, pH 7.4, 150 mM NaCl, 5 mM MgCl2, 0.01% TritonX-100 and 2% DMSO was then added at 10 ul/well and incubated for 60-90 minutes before the samples were read for emission at 570 nm after excitation of the donor beads at 680 nm. All incubations were performed at room temperature. The final top compound concentration was 50 μM with 1:3 titrations for 10-point dose response curves. Final assay conditions were 1.5 nM KRAS G12C, 100 nM RBD, 1.25 ug/ml of AlphaScreen donor beads and 10 μg/ml AlphaLISA acceptor beads. IC50s were determined using nonlinear regression fit of [inhibitor] vs. response (4 parameters). […]

CCc1c(F)ccc2cccc(-c3ncc4c(N5CCN(C(=O)/C=C/CN6CCOCC6)[C@@H](CC#N)C5)nc(OC[C@@]56CCCN5C[C@H](F)C6)nc4c3F)c12 [Compound 226]
logD [1]: 2.63
IC50 [2]: 10 to 100 nM
solubility kinetic at 2 h [3]: 103 µg/mL (≈ 137 µM)
IC50 [4]: < 10 nM

Cc1cc(N)nc([C@@H]2Cc3nc(OC[C@@]45CCCN4C[C@H](F)C5)nc(N4CCN(C(=O)/C=C/c5nc([C@H]6C[C@@H]6F)no5)[C@@H](CC#N)C4)c3C[C@H]2C)c1C(F)(F)F [Compound 136]
logD [1]: 4.37
IC50 [2]: < 10 nM
solubility kinetic at 2 h [3]: 0.02 µg/mL (≈ 0.0255 µM)
IC50 [4]: < 10 nM

Cc1nsc(/C=C/C(=O)N2CCN(c3nc(OCC45CCCN4CCC5)nc4c3CCN(c3cccc5cccc(Cl)c35)C4)C[C@@H]2CC#N)n1 [Example 9, (S,E)-2-(4-(7-(8-chloronaphthalen-1-yl)-2-((hexahydro-1H-pyrrolizin-7a-yl)methoxy)-5,6,7,8-tetrahydropyrido[3,4-d]pyrimidin-4-yl)-1-(3-(3-methyl-1,2,4-thiadiazol-5-yl)acryloyl)piperazin-2-yl)acetonitrile]
logD [1]: 3.55
IC50 [2]: < 10 nM
solubility kinetic at 2 h [3]: 67 µg/mL (≈ 94.4 µM)
IC50 [4]: < 10 nM

Cc1nccc(/C=C/C(=O)N2CCN(c3nc(OC[C@@]45CCCN4C[C@H](F)C5)nc4c(F)c(-c5nc(N)cc6cccc(Cl)c56)ncc34)C[C@@H]2CC#N)n1 [Compound 148]
logD [1]: 2.25
IC50 [2]: < 10 nM
solubility kinetic at 2 h [3]: 83.8 µg/mL (≈ 111 µM)
IC50 [4]: < 10 nM

Cc1noc(/C=C/C(=O)N2CCN(c3nc(OC[C@@]45CCCN4C[C@H](F)C5)nc4c3CCN(c3cccc5cccc(Cl)c35)C4)C[C@@H]2CC#N)n1 [Compound 2, 2-((S)-4-(7-(8-chloronaphthalen-1-yl)-2-(((2R,7aS)-2-fluorohexahydro-1H-pyrrolizin-7a-yl)methoxy)-5,6,7,8-tetrahydropyrido[3,4-d]pyrimidin-4-yl)-1-((E)-3-(3-methyl-1,2,4-oxadiazol-5-yl)acryloyl)piperazin-2-yl)acetonitrile]
logD [1]: 4.42
IC50 [2]: 10 to 100 nM
IC50 [4]: < 10 nM

2-((S)-4-(7-(8-chloro-7-fluoronaphthalen-1-yl)-8-fluoro-2-(((2R,7aS)-2-fluorotetrahydro-1H-pyrrolizin-7a(5H)-yl)methoxy)pyrido[4,3-d]pyrimidin-4-yl)-1-((E)-4-((3aR,6aS)-tetrahydro-1H-furo[3,4-c]pyrrol-5(3H)-yl)but-2-enoyl)piperazin-2-yl)acetonitrile [Example 84]
Log D, pH 7.4 ([1]; pH 7.4, 1-octanol/phosphate buffer): 2.97
IC50 [2]: < 10 nM
IC50 [4]: < 10 nM

C[C@@H]1CN(C/C=C/C(=O)N2CCN(c3nc(OC[C@@]45CCCN4C[C@H](F)C5)nc4c(F)c(-c5cccc6ccc(F)c(Cl)c56)ncc34)C[C@@H]2CC#N)C[C@@H](C)O1 [Example 74, 2-((S)-4-(7-(8-chloro-7-fluoronaphthalen-1-yl)-8-fluoro-2-(((2R,7aS)-2-fluorotetrahydro-1H-pyrrolizin-7a(5H)-yl)methoxy)pyrido[4,3-d]pyrimidin-4-yl)-1-((E)-4-((2R,6R)-2,6-dimethylmorpholino)but-2-enoyl)piperazin-2-yl)acetonitrile]
IC50 [2]: < 10 nM
IC50 [4]: < 10 nM

N#CC[C@H]1CN(c2nc(OC[C@@]34CCCN3C[C@H](F)C4)nc3c(F)c(-c4cccc(Cl)c4C4CC4)ncc23)CCN1C(=O)/C=C/CN1CCOCC1 [Compound 243]
IC50 [2]: < 10 nM
IC50 [4]: < 10 nM

N#CC[C@H]1CN(c2nc(OC[C@@]34CCCN3C[C@H](F)C4)nc3c(F)c(-c4cccc5cccc(F)c45)ncc23)CCN1C(=O)/C=C/CN1C[C@@H]2C[C@H]1CO2 [Compound 219]
IC50 [2]: < 10 nM
IC50 [4]: < 10 nM

CC(F)(F)c1noc(/C=C/C(=O)N2CCN(c3nc(OCC45CCCN4CCC5)nc4c(F)c(-c5cccc6cccc(Cl)c56)ncc34)C[C@@H]2CC#N)n1 [Example 13, (S,E)-2-(4-(7-(8-chloronaphthalen-1-yl)-8-fluoro-2-((tetrahydro-1H-pyrrolizin-7a(5H)-yl)methoxy)pyrido[4,3-d]pyrimidin-4-yl)-1-(3-(3-(1,1-difluoroethyl)-1,2,4-oxadiazol-5-yl)acryloyl)piperazin-2-yl)acetonitrile]
IC50 [2]: 10 to 100 nM
IC50 [4]: 10 to 100 nM

N#CC[C@H]1CN(c2nc(OC[C@@]34CCCN3C[C@H](F)C4)nc3c(F)c(-c4cccc5cccc(Cl)c45)ncc23)CCN1C(=O)/C=C/CN1C[C@@H]2C[C@H]1CO2 [Compound 180]
IC50 [2]: < 10 nM
IC50 [4]: < 10 nM

CO[C@@H]1CCN(C/C=C/C(=O)N2CCN(c3nc(OC[C@@]45CCCN4C[C@H](F)C5)nc4c(F)c(-c5cccc6ccc(F)c(F)c56)ncc34)C[C@@H]2CC#N)C1 [Compound 216]
IC50 [2]: < 10 nM
IC50 [4]: < 10 nM

Cc1nccc(/C=C/C(=O)N2CCN(c3nc(OC[C@@]45CCCN4C[C@H](F)C5)nc4c(F)c(-c5cccc(Cl)c5C5CC5)ncc34)C[C@@H]2CC#N)n1 [Compound 104, 2-((S)-4-(7-(3-chloro-2-cyclopropylphenyl)-8-fluoro-2-(((2R,7aS)-2-fluorotetrahydro-1H-pyrrolizin-7a(5H)-yl)methoxy)pyrido[4,3-d]pyrimidin-4-yl)-1-((E)-3-(2-methylpyrimidin-4-yl)acryloyl)piperazin-2-yl)acetonitrile]
IC50 [2]: < 10 nM
IC50 [4]: < 10 nM

N#CC[C@H]1CN(c2nc(OC[C@@]34CCCN3C[C@H](F)C4)nc3c(F)c(-c4cccc5cccc(Cl)c45)ncc23)CCN1C(=O)/C=C/CN1C[C@H]2C[C@@H]1CO2 [Compound 181]
IC50 [2]: < 10 nM
IC50 [4]: < 10 nM

N#CC[C@H]1CN(c2nc(OCC34CCCN3CCC4)nc3c2CCN(c2cccc4cccc(Cl)c24)C3)CCN1C(=O)/C=C/CN1CCCCC1 [Compound 170]
IC50 [2]: < 10 nM
IC50 [4]: < 10 nM

Cc1cc(N)nc(C2Cc3nc(OC[C@@]45CCCN4C[C@H](F)C5)nc(N4CCN(C(=O)/C=C/C5CCN5C)[C@@H](CC#N)C4)c3CC2C)c1C(F)(F)F (mixture of isomers) [Example 68, 2-((2S)-4-(7-(6-amino-4-methyl-3-(trifluoromethyl)pyridin-2-yl)-2-(((2R,7aS)-2-fluorohexahydro-1H-pyrrolizin-7a-yl)methoxy)-6-methyl-5,6,7,8-tetrahydroquinazolin-4-yl)-1-((E)-3-(1-methylazetidin-2-yl)acryloyl)piperazin-2-yl)acetonitrile]
logD [1]: 3.09
IC50 [2]: < 10 nM
IC50 [4]: < 10 nM

Cc1nccc(/C=C/C(=O)N2CCN(c3nc(OC[C@@]45CCCN4C[C@H](F)C5)nc4c(F)c(-c5cccc6ccc(F)c(F)c56)ncc34)C[C@@H]2CC#N)n1 [Compound 211]
IC50 [2]: < 10 nM
IC50 [4]: < 10 nM

Cc1noc(/C=C/C(=O)N2CCN(c3nc(OC[C@@]45CCCN4C[C@H](F)C5)nc4c3CCN(c3cccc5ccc(F)c(Cl)c35)C4)C[C@@H]2CC#N)n1 [Example 3, 2-((S)-4-(7-(8-chloro-7-fluoronaphthalen-1-yl)-2-(((2R,7aS)-2-fluorotetrahydro-1H-pyrrolizin-7a(5H)-yl)methoxy)-5,6,7,8-tetrahydropyrido[3,4-d]pyrimidin-4-yl)-1-((E)-3-(3-methyl-1,2,4-oxadiazol-5-yl)acryloyl)piperazin-2-yl)acetonitrile]
IC50 [2]: 10 to 100 nM
IC50 [4]: < 10 nM
